This note sets out measurements from article PMC8889550 (JACS Au, 2022).

For this experiment, the target named is T1, horseradish peroxidase (HRP) (Armoracia rusticana, UniProt P00433).
T1 sequence (P00433 31-338): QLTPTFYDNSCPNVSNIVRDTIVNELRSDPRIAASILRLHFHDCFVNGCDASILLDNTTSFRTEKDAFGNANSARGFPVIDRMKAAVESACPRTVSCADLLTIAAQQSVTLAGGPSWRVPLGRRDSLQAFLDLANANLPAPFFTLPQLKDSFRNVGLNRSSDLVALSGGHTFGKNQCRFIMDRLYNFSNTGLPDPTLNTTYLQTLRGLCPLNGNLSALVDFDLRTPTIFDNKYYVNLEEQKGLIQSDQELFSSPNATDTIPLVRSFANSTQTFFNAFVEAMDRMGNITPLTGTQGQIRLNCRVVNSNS
The experiment can be described thus: coupled GOx/HRP cascade, Resorufin formation in plate reader. Type of experiment: biochemical. The conditions noted are these: 200 μM Amplex Red; H2O2 generated by GOx from glucose; DNA-functionalized enzyme.

For the compound `CC(=O)N1c2ccc(O)cc2Oc2cc(O)ccc21` [Amplex Red], the “coupled GOx/HRP cascade, Resorufin formation in plate reader” value is “Amplex Red → Resorufin catalyzed by HRP”.
